Measured values reported in ChEMBL document CHEMBL4177721, “Synthesis, antitumor activity, and cytotoxicity of 4-substituted 1-benzyl-5-diphenylstibano-1H-1,2,3-triazoles” (Bioorg Med Chem Lett, 2018).
Activity calls are given as the source filed them. The rule behind the calls is not given here.

Key:
[1] = tested on: HL-60; experiment: Antitumor activity against human HL60 cells incubated for 72 hrs by MTT assay; type: functional, cell-based; details: HL-60, 72 h
[2] = tested on: MCF7; experiment: Antitumor activity against human MCF7 cells incubated for 72 hrs by MTT assay; type: functional, cell-based; details: MCF7, 72 h
[3] = tested on: B16-F10; experiment: Antitumor activity against mouse B16F10 cells incubated for 72 hrs by MTT assay; type: functional, cell-based; details: B16-F10, 72 h
[4] = Cytotoxicity against bovine aorta vascular endothelial cells assessed as reduction in cell viability incubated for 24 hrs by MTT assay; type: cell-based, Bos taurus; details: cattle
[5] = tested on: HT-1080; experiment: Antitumor activity against human HT1080 cells incubated for 72 hrs by MTT assay; type: functional, cell-based; details: HT-1080, 72 h
[6] = tested on: DLD-1; experiment: Antitumor activity against human DLD1 cells incubated for 72 hrs by MTT assay; type: functional, cell-based; details: DLD-1, 72 h
[7] = tested on: KB; experiment: Antitumor activity against human KB cells incubated for 72 hrs by MTT assay; type: functional, cell-based
[8] = tested on: NUGC-3; experiment: Antitumor activity against human NUGC3 cells incubated for 72 hrs by MTT assay; type: functional, cell-based; details: NUGC-3, 72 h
[9] = tested on: P388; experiment: Antitumor activity against mouse P388 cells incubated for 72 hrs by MTT assay; type: functional, cell-based; details: P388, 72 h
[10] = tested on: DLD-1; experiment: Antitumor activity against human DLD1 cells at 0.5 uM incubated for 72 hrs by MTT assay; type: functional, cell-based
[11] = tested on: NUGC-3; experiment: Antitumor activity against human NUGC3 cells at 0.5 uM incubated for 72 hrs by MTT assay; type: functional, cell-based
[12] = tested on: MCF7; experiment: Antitumor activity against human MCF7 cells at 0.5 uM incubated for 72 hrs by MTT assay; type: functional, cell-based
[13] = tested on: P388; experiment: Antitumor activity against mouse P388 cells at 0.5 uM incubated for 72 hrs by MTT assay; type: functional, cell-based
[14] = tested on: HT-1080; experiment: Antitumor activity against human HT1080 cells at 0.5 uM incubated for 72 hrs by MTT assay; type: functional, cell-based
[15] = tested on: B16-F10; experiment: Antitumor activity against mouse B16F10 cells at 0.5 uM incubated for 72 hrs by MTT assay; type: functional, cell-based
[16] = tested on: KB; experiment: Antitumor activity against human KB cells at 0.5 uM incubated for 72 hrs by MTT assay; type: functional, cell-based
[17] = tested on: HL-60; experiment: Antitumor activity against human HL60 cells at 0.5 uM incubated for 72 hrs by MTT assay; type: functional, cell-based

Row | IC50 [1] [µM] | IC50 [2] [µM] | IC50 [3] [µM] | IC50 [5] [µM] | IC50 [6] [µM] | IC50 [7] [µM] | IC50 [9] [µM] | Molecule | CC50 at 24 h [4] [µM] | IC50 [8] [µM] | Activity [10] | Activity [11] | Activity [12] | Activity [13] | Activity [14] | Activity [15] | Activity [16] | Activity [17]
1 | > 100 | > 100 | 421 | > 100 | > 100 | > 100 | 217 | CCCCc1cn(Cc2ccccc2)nn1 | > 100 | > 100 | – | – | – | – | – | – | – | –
2 | > 100 | 231 | 88.5 | 146 | 139 | 86.6 | 83.8 | COc1ccc(-c2cn(Cc3ccccc3)nn2)cc1 | > 100 | 158 | – | – | – | – | – | – | – | –
3 | > 100 | 490 | 96.1 | 651 | > 100 | > 100 | 99.1 | c1ccc(Cn2cc(-c3ccccc3)nn2)cc1 | > 100 | 836 | – | – | – | – | – | – | – | –
4 | 171 | > 100 | 45.5 | 219 | > 100 | > 100 | 49.6 | C1=C(c2cn(Cc3ccccc3)nn2)CCCC1 | > 100 | > 100 | – | – | – | – | – | – | – | –
5 | > 100 | 253 | 66.4 | 84.4 | 102 | 79.5 | 94.1 | Cc1ccc(-c2cn(Cc3ccccc3)nn2)cc1 | > 100 | 129 | – | – | – | – | – | – | – | –
6 | 171 | 162 | 35.4 | 57.7 | 74.3 | 60.2 | 17.5 | FC(F)(F)c1ccc(-c2cn(Cc3ccccc3)nn2)cc1 | > 100 | 81 | – | – | – | – | – | – | – | –
7 | – | – | – | – | – | – | – | 1-Benzyl-4-(p-tolyl)-5-(diphenylstibano)-1H-1,2,3-triazole | – | – | Active | Active | Active | Active | Active | Active | Active | Active
